{"source": "patent US20160318866A1", "about": "“SUBSTITUTED BIPIPERIDINYL DERIVATIVES” (Bayer Pharma Aktiengesellschaft, priority 2013, published 2016)", "key": {"[1]": {"tested_on": "ZDF rat", "assay": "Measurement of blood flow and blood pressure in rats (ZDF rats)", "type": "in vivo", "conditions": "for Change in the femoral flow in %: ZDF rat, steady state, 32 min after start, vs initial flow, mean", "description": "(§1) Wistar rats (Hsd Cpb:Wu) of a weight of 250-350 g or ZDF rats (ZDF/Crl-Lepr fa/fa) of a weight of 330-520 g were anaesthetized using 2.5% isoflurane in an oxygen/laughing gas mixture (40:60). To determine the blood flow in the carotid artery and the femoral artery, the anaesthetized rat was brought into a supine position, and the left carotid artery and the right femoral artery are then carefully exposed. Blood flow was measured by placing flow probes (Transonic Flowprobe) at the vessels. By introducing a PE50 artery catheter into the left femoral artery, blood pressure and heart rate were determined (Transducer Ref. 5203660: from Braun CH). The substances were administered as a bolus injection or a continuous infusion via a venous catheter in the left femoral vein.\n(§2) Following the preparation of the animals, there was a 5 min baseline interval. Infusion of the AR alphα2C receptor antagonist was then started. In the steady state (32 min after the start of the experiment), the femoral flow was determined in relation (% difference) to the initial flow."}, "[2]": {"target": "T1, human α2C receptor (Homo sapiens, UniProt P18825)", "T1 construct": "expressed in transfected cells; host or cells: CHO cells, also recombinantly expressing chimeric G protein Gαqi3 and mitochondrial obelin (mtOb)", "T1 sequence (P18825 1-462)": "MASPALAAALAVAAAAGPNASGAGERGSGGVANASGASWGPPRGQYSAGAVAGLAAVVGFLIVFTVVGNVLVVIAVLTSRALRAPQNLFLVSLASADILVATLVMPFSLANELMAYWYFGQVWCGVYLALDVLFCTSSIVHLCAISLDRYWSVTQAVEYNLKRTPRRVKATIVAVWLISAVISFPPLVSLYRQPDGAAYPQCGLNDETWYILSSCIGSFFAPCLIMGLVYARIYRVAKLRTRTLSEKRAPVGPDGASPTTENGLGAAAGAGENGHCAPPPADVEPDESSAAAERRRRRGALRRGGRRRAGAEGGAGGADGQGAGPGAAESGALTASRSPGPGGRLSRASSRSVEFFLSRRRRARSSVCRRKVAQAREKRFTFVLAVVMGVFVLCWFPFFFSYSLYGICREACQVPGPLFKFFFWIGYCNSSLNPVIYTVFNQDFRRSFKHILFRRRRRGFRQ", "assay": "Antagonism against the adrenoreceptor α2C (luminescence, recombinant CHO cell line)", "type": "cell-based", "conditions": "antagonism against adrenoreceptor α2C; noradrenaline 20 nM; tested up to 10 μM; read-out: IC50", "how_it_was_run": "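CHO cells expressing human α2C receptor with chimeric Gαqi3 and mitochondrial obelin, loaded with 2.5 μg/ml coelenterazine for one day at 30 °C.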"}, "[3]": {"tested_on": "Wistar rat", "assay": "Measurement of blood flow and blood pressure in rats (Wistar rats)", "type": "in vivo", "conditions": "steady state, 32 min after start, vs initial flow, mean", "description": "as §1, §2"}, "[4]": {"tested_on": "diabetic (ZDFfa/fa) and healthy rats (Wistar)", "assay": "Assay of perfusion-enhancing substances (microcirculation), laser doppler at the paw", "type": "in vivo, rat", "conditions": "single oral dose", "text": "In diabetic (ZDFfa/fa) and healthy rats (Wistar), a laser doppler probe was fastened under anaesthesia conditions (isoflurane anaesthesia) at the sole of the paw for measuring cutaneous microcirculation. The test animals were once treated orally with the test substances. During the experiment, microperfusion and temperature of the lower extremities were documented continuously. Here, a temperature-sensitive laser doppler probe (Periflux, O2C) was fastened with adhesive to the paws of the animals, allowing the measurement of microperfusion and skin temperature. The microcirculation measurement values were measured on both paws 30 min after oral administration of the test substance. […] Also stated is the MED for the significant increase of skin temperature (ttest)."}, "[5]": {"conditions": "anaesthetized rats, same experiment as femoral flow, strain not specified"}}}
{"smiles": "CC1CCCN(C2CCN(C(=O)c3ccc(C(C)(C)O)cc3)CC2)C1", "note": "(single isomer, unassigned) [Example 8, [4-(1-Hydroxy-1-methylethyl)phenyl)](3-methyl-1,4′-bipiperidin-1′-yl)methanone, (−)-enantiomer]", "values": [{"measurement": "Change in the femoral flow in %", "setting": "[1]; 3 μg/kg/min infusion", "value": "12.0 (n = 4) %"}, {"measurement": "Change in the femoral flow in %", "setting": "[1]; 10 μg/kg/min infusion", "value": 127.9, "unit": "%"}, {"measurement": "Change in the femoral flow in %", "setting": "[1]; 30 μg/kg/min infusion", "value": 144.4, "unit": "%"}, {"measurement": "blood pressure", "setting": "[1]; [5]", "value": "no changes"}, {"measurement": "heart rate", "setting": "[1]; [5]", "value": "no changes"}, {"measurement": "IC50", "setting": "[2]", "value": 163, "unit": "nM"}, {"measurement": "Change in the femoral flow in %", "setting": "[3]; 10 μg/kg/min", "value": "14.2 (n = 3) %"}, {"measurement": "Change in the femoral flow in %", "setting": "[3]; 30 μg/kg/min infusion", "value": "3.1 (n = 5) %"}, {"measurement": "Change in the femoral flow in %", "setting": "[3]; 300 μg/kg/min infusion", "value": "15.3 (n = 5) %"}, {"measurement": "factor by which microcirculation is improved at this dose compared to placebo", "setting": "[4]; at the MED, 30 min after administration", "value": 2.3, "unit": "x"}, {"measurement": "MED [mg/kg] skin temperature", "setting": "[4]; minimum effective dose for significant increase of skin temperature (ttest)", "value": 1, "unit": "mg/kg"}, {"measurement": "MED [mg/kg] microcirculation", "setting": "[4]; minimum effective dose for significantly improved microcirculation vs placebo, 30 min after administration", "value": 1, "unit": "mg/kg"}]}
